The values that follow come from patent US9662323B2, “Compounds having muscarinic receptor antagonist and beta2 adrenergic receptor agonist activity” (CHIESI FARMACEUTICI S.p.A., priority 2015, dated 2017).

The target of one test is T1, Human M3 receptor (Homo sapiens, UniProt P20309).
T1 construct: purchased Perkin Elmer
In words: M3 Receptor Radioligand Binding Assay. The gist of the method:
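Radioligand binding with 0.5% (v/v) final DMSO, incubated 2 h at room temperature with shaking. Membranes were collected on GF/C filters pre-treated with 0.5% polyethyleneimine, washed four times with assay buffer, and counted by scintillation.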

For the next test, the target named is T2, Human β2 adrenoceptor (Homo sapiens, UniProt P07550).
T2 construct: purchased Perkin Elmer
T2 sequence (P07550 whole entry): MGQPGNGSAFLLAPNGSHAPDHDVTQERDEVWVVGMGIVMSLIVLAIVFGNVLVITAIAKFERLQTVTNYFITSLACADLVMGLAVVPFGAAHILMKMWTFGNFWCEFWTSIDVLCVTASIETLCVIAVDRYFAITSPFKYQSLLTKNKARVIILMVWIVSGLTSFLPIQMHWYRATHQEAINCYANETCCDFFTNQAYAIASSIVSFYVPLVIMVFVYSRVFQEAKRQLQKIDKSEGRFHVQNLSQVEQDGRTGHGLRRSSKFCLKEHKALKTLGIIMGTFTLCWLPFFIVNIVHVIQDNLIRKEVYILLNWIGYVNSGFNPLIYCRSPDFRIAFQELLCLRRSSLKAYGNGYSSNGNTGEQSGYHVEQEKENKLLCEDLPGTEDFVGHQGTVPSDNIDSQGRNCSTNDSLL
In words: β2 Adrenoceptor Radioligand Binding Assay. The gist of the method:
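Membranes were incubated 1 h at room temperature in 25 mM HEPES, 0.5% BSA, 1 mM EDTA, 0.02% ascorbic acid, pH 7.4, with 0.5% DMSO final. Bound radioligand was collected by GF/C filtration and counted by scintillation. IC50 values from competition curves were converted to Ki by Cheng–Prusoff.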

Setting [1] is: human M3 receptor membranes, [3H]-N-methyl scopolamine, read-out: M3 binding affinity (Ki class).
Setting [2] is: human β2 adrenoceptor membranes, 125-I Cyanopindolol, read-out: B2 binding affinity (Ki class).

pKi: −log10 of the molar value. Like-named read-outs stand apart in the source and are kept apart here.

T1 sequence (P20309 whole entry): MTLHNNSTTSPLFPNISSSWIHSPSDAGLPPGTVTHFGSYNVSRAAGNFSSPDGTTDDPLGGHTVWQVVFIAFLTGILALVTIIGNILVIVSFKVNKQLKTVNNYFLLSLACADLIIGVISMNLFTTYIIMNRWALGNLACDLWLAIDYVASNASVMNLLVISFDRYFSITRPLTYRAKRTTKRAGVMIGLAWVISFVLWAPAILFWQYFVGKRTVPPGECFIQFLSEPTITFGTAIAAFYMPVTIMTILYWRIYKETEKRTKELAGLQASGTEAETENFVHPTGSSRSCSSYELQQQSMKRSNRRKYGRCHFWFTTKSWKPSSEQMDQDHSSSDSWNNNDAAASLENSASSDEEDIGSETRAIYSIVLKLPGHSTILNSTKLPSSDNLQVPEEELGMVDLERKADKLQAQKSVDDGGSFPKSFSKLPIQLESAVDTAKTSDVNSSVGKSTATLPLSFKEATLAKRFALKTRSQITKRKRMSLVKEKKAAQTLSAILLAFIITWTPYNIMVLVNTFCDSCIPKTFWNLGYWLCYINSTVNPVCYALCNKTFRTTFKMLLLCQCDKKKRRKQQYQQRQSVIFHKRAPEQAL

For `O=C(c1ccc(OCCCCCCNC[C@H](O)c2ccc(O)c3[nH]c(=O)ccc23)cc1)N1CCC(C(=O)O[C@H]2CN3CCC2CC3)(c2ccccc2)CC1` [Compound 49, (R)-Quinuclidin-3-yl 1-(4-((6-(((R)-2-hydroxy-2-(8-hydroxy-2-oxo-1,2-dihydroquinolin-5-yl)ethyl)amino)hexyl)oxy)benzoyl)-4-phenylpiperidine-4-carboxylate], the pKi at Human M3 receptor (setting [1]) and on Human β2 adrenoceptor (setting [2]) was over 9.00 each time.
Take `O=C(c1ccc(OCCCCCCNC[C@H](O)c2ccc(O)c3[nH]c(=O)ccc23)cc1)N1CCC(C(=O)O[C@H]2CN3CCC2CC3)(c2ccc(Br)cc2)CC1` [Compound 50, (R)-Quinuclidin-3-yl 4-(4-bromophenyl)-1-(4-((6-(((R)-2-hydroxy-2-(8-hydroxy-2-oxo-1,2-dihydroquinolin-5-yl)ethyl)amino)hexyl)oxy)benzoyl)piperidine-4-carboxylate]: the results for the pKi on Human M3 receptor (setting [1]) and on Human β2 adrenoceptor (setting [2]) were under 8.00 and over 9.00, respectively.
For `O=C(c1ccc(OCCCCCCNC[C@H](O)c2ccc(O)c3[nH]c(=O)ccc23)cc1)N1CCC(C(=O)O[C@H]2CN3CCC2CC3)(c2ccc(Cl)cc2)CC1` [Compound 51, (R)-Quinuclidin-3-yl 4-(4-chlorophenyl)-1-(4-((6-(((R)-2-hydroxy-2-(8-hydroxy-2-oxo-1,2-dihydroquinolin-5-yl)ethyl)amino)hexyl)oxy)benzoyl)piperidine-4-carboxylate], in that order: 8.00 to 9.00 and over 9.00.
In the same order, the values of `CCN(CCCNC[C@H](O)c1ccc(O)c2[nH]c(=O)ccc12)C(=O)c1ccc(CCC(=O)N2CCC(C(=O)O[C@H]3CN4CCC3CC4)(c3ccccc3)CC2)cc1` [Compound 52, (R)-Quinuclidin-3-yl 1-(3-(4-(ethyl(3-(((R)-2-hydroxy-2-(8-hydroxy-2-oxo-1,2-dihydroquinolin-5-yl)ethyl)amino)propyl)carbamoyl)phenyl)propanoyl)-4-phenylpiperidine-4-carboxylate] are 8.00 to 9.00 and over 9.00.
On to `CN(CCCNC[C@H](O)c1ccc(O)c2[nH]c(=O)ccc12)C(=O)c1ccc(CCC(=O)N2CCC(C(=O)O[C@H]3CN4CCC3CC4)(c3ccccc3)CC2)cc1` [Compound 53, (R)-Quinuclidin-3-yl 1-(3-(4-((3-(((R)-2-hydroxy-2-(8-hydroxy-2-oxo-1,2-dihydroquinolin-5-yl)ethyl)amino)propyl)(methyl)carbamoyl)phenyl)propanoyl)-4-phenylpiperidine-4-carboxylate], for which the pKi at Human M3 receptor (setting [1]) and at Human β2 adrenoceptor (setting [2]) was 8.00 to 9.00 in each case.
Consider `O=C(CCc1ccc(C(=O)N(CCCNC[C@H](O)c2ccc(O)c3[nH]c(=O)ccc23)Cc2ccccc2)cc1)N1CCC(C(=O)O[C@H]2CN3CCC2CC3)(c2ccccc2)CC1` [Compound 54, (R)-Quinuclidin-3-yl 1-(3-(4-(benzyl(3-(((R)-2-hydroxy-2-(8-hydroxy-2-oxo-1,2-dihydroquinolin-5-yl)ethyl)amino)propyl)carbamoyl)phenyl)propanoyl)-4-phenylpiperidine-4-carboxylate], for which the pKi at Human M3 receptor (setting [1]) and at Human β2 adrenoceptor (setting [2]) was 8.00 to 9.00 in each case.
For the molecule `O=C(Cc1ccc(OCc2ccc(CNC[C@H](O)c3ccc(O)c4[nH]c(=O)ccc34)cc2)cc1)N1CCC(C(=O)O[C@H]2CN3CCC2CC3)(c2ccccc2)CC1` [Compound 55, (R)-Quinuclidin-3-yl 1-(2-(4-((4-((((R)-2-hydroxy-2-(8-hydroxy-2-oxo-1,2-dihydroquinolin-5-yl)ethyl)amino)methyl)benzyl)oxy)phenyl)acetyl)-4-phenylpiperidine-4-carboxylate], the pKi at Human M3 receptor (setting [1]) and on Human β2 adrenoceptor (setting [2]) was over 9.00 in each case.
For the molecule `O=C(CCc1ccc(OCc2ccc(CNC[C@H](O)c3ccc(O)c4[nH]c(=O)ccc34)cc2)cc1)N1CCC(C(=O)O[C@H]2CN3CCC2CC3)(c2ccccc2)CC1` [Compound 56, (R)-Quinuclidin-3-yl 1-(3-(4-((4-((((R)-2-hydroxy-2-(8-hydroxy-2-oxo-1,2-dihydroquinolin-5-yl)ethyl)amino)methyl)benzyl)oxy)phenyl)propanoyl)-4-phenylpiperidine-4-carboxylate], the negative logarithm of the Ki (pKi) at Human M3 receptor (setting [1]) is 8.00 to 9.00; on Human β2 adrenoceptor (setting [2]), over 9.00.
For `CC(=O)N(Cc1ccc(CNC[C@H](O)c2ccc(O)c3[nH]c(=O)ccc23)cc1)Cc1ccc(C(=O)N2CCC(C(=O)O[C@H]3CN4CCC3CC4)(c3ccccc3)CC2)cc1` [Compound 57, (R)-Quinuclidin-3-yl 1-(4-((N-(4-((((R)-2-hydroxy-2-(8-hydroxy-2-oxo-1,2-dihydroquinolin-5-yl)ethyl)amino)methyl)benzyl)acetamido)methyl)benzoyl)-4-phenylpiperidine-4-carboxylate], in that order: over 9.00 and 8.00 to 9.00.
In the same order, the values of `CS(=O)(=O)N(Cc1ccc(CNC[C@H](O)c2ccc(O)c3[nH]c(=O)ccc23)cc1)Cc1ccc(C(=O)N2CCC(C(=O)O[C@H]3CN4CCC3CC4)(c3ccccc3)CC2)cc1` [Compound 58, (R)-Quinuclidin-3-yl 1-(4-((N-(4-((((R)-2-hydroxy-2-(8-hydroxy-2-oxo-1,2-dihydroquinolin-5-yl)ethyl)amino)methyl)benzyl)methylsulfonamido)-methyl)benzoyl)-4-phenylpiperidine-4-carboxylate] are 8.00 to 9.00 and 8.00 to 9.00.
Regarding `O=C(c1ccc(CN(Cc2ccc(CNC[C@H](O)c3ccc(O)c4[nH]c(=O)ccc34)cc2)C(=O)c2ccccc2)cc1)N1CCC(C(=O)O[C@H]2CN3CCC2CC3)(c2ccccc2)CC1` [Compound 59, (R)-Quinuclidin-3-yl 1-(4-((N-(4-((((R)-2-hydroxy-2-(8-hydroxy-2-oxo-1,2-dihydroquinolin-5-yl)ethyl)amino)methyl)benzyl)benzamido)methyl)benzoyl)-4-phenylpiperidine-4-carboxylate], the pKi was over 9.00 on Human M3 receptor and under 8.00 at Human β2 adrenoceptor.
For `O=C(c1ccc(CN(Cc2ccc(CNC[C@H](O)c3ccc(O)c4[nH]c(=O)ccc34)cc2)C(=O)C2CC2)cc1)N1CCC(C(=O)O[C@H]2CN3CCC2CC3)(c2ccccc2)CC1` [Compound 60, (R)-Quinuclidin-3-yl 1-(4-((N-(4-((((R)-2-hydroxy-2-(8-hydroxy-2-oxo-1,2-dihydroquinolin-5-yl)ethyl)amino)methyl)benzyl)cyclopropanecarboxamido)-methyl)benzoyl)-4-phenylpiperidine-4-carboxylate], the negative-log Ki (pKi) on Human M3 receptor (setting [1]) is over 9.00; at Human β2 adrenoceptor (setting [2]), 8.00 to 9.00.
As for `O=C(c1ccc(CN(Cc2ccc(CNC[C@H](O)c3ccc(O)c4[nH]c(=O)ccc34)cc2)S(=O)(=O)c2ccccc2)cc1)N1CCC(C(=O)O[C@H]2CN3CCC2CC3)(c2ccccc2)CC1` [Compound 61, (R)-Quinuclidin-3-yl 1-(4-((N-(4-((((R)-2-hydroxy-2-(8-hydroxy-2-oxo-1,2-dihydroquinolin-5-yl)ethyl)amino)methyl)benzyl)phenylsulfonamido)-methyl)benzoyl)-4-phenylpiperidine-4-carboxylate], the pKi at Human M3 receptor is over 9.00; on Human β2 adrenoceptor, under 8.00.
As to `COC(=O)N(Cc1ccc(CNC[C@H](O)c2ccc(O)c3[nH]c(=O)ccc23)cc1)Cc1ccc(C(=O)N2CCC(C(=O)O[C@H]3CN4CCC3CC4)(c3ccccc3)CC2)cc1` [Compound 62, (R)-Quinuclidin-3-yl 1-(4-(((4-((((R)-2-hydroxy-2-(8-hydroxy-2-oxo-1,2-dihydroquinolin-5-yl)ethyl)amino)methyl)benzyl)(methoxycarbonyl)amino)-methyl)benzoyl)-4-phenylpiperidine-4-carboxylate], the values for the pKi at Human M3 receptor (setting [1]) and on Human β2 adrenoceptor (setting [2]) were over 9.00 and 8.00 to 9.00, respectively.
In the same order, the values of `CNC(=O)N(Cc1ccc(CNC[C@H](O)c2ccc(O)c3[nH]c(=O)ccc23)cc1)Cc1ccc(C(=O)N2CCC(C(=O)O[C@H]3CN4CCC3CC4)(c3ccccc3)CC2)cc1` [Compound 63, (R)-Quinuclidin-3-yl 1-(4-((1-(4-((((R)-2-hydroxy-2-(8-hydroxy-2-oxo-1,2-dihydroquinolin-5-yl)ethyl)amino)methyl)benzyl)-3-methylureido)methyl)benzoyl)-4-phenylpiperidine-4-carboxylate] are over 9.00 and 8.00 to 9.00.
For `O=C(c1ccc(COCc2ccc(CNC[C@H](O)c3ccc(O)c4[nH]c(=O)ccc34)cc2)cc1)N1CCC(C(=O)O[C@H]2CN3CCC2CC3)(c2ccccc2)CC1` [Compound 64, (R)-Quinuclidin-3-yl 1-(4-(((4-((((R)-2-hydroxy-2-(8-hydroxy-2-oxo-1,2-dihydroquinolin-5-yl)ethyl)amino)methyl)benzyl)oxy)methyl)benzoyl)-4-phenylpiperidine-4-carboxylate], in that order: over 9.00 and 8.00 to 9.00.

A word on the pKi: it is the Ki on a negative log10 scale, so that one unit is a factor of ten.
